Measured values published in patent US20090124606A1, “Composition for Treatment of Psychosis” (priority 2005, published 2009).

What was measured:
[1] = system: NMRI mice; experiment: Inhibition of catalepsy generated by haloperidol (45° inclined grid); type: in vivo
Procedure: Experiments were elaborated on 20-25 g weight NMRI mice. Groups of 10 mice were treated intraperitoneally with 15 mg/kg of haloperidol and carrier agent. Deramciclane (and carriers) were administered orally in different doses 60 minutes later. After a subsequent 60 minutes period mice were placed to a grid which has an inclination angle of 45°. In case of the animals were motionless for more than 30 seconds on the grid the events were seen as catalepsy. The procedure was repeated in every 30 minutes for 3 hours.
The effects are shown by percentage of changes compared to control group.

[2] = target: 5-HT2A (Homo sapiens, UniProt P28223); conditions: read-out: Receptor Affinity (Ki); cited from earlier work
[3] = target: 5-HT2C (Homo sapiens, UniProt P28335); conditions: read-out: Receptor Affinity (Ki); cited from earlier work
[4] = target: Dopamine D2 (Homo sapiens, UniProt P14416); conditions: read-out: Receptor Affinity (Ki); cited from earlier work
[5] = deramciclane alone; cited from earlier work

Sequence of 5-HT2C (P28335 33-458, species assumed): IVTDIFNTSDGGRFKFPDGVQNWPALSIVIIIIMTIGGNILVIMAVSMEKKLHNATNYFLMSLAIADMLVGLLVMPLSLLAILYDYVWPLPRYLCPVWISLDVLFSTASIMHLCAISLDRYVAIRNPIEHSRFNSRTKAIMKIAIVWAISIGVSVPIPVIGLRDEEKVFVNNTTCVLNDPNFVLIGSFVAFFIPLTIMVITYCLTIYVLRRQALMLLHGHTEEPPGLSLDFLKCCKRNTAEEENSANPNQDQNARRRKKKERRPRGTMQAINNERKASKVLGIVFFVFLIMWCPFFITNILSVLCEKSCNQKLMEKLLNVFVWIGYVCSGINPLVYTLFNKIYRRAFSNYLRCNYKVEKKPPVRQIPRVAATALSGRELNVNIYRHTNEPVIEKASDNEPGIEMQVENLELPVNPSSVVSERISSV
Sequence of Dopamine D2 (P14416 whole entry): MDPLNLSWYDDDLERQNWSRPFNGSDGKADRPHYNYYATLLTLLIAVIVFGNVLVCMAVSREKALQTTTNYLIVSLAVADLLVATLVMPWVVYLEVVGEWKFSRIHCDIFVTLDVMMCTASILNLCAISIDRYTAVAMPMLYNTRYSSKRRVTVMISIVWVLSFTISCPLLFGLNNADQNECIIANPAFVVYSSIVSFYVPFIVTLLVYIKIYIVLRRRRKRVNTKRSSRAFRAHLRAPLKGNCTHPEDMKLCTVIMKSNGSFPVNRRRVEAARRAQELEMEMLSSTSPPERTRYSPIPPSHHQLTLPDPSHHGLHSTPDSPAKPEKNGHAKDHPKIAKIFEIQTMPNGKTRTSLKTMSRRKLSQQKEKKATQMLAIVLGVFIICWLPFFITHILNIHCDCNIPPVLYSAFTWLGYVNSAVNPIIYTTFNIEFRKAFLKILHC
Sequence of 5-HT2A (P28223 whole entry, species assumed): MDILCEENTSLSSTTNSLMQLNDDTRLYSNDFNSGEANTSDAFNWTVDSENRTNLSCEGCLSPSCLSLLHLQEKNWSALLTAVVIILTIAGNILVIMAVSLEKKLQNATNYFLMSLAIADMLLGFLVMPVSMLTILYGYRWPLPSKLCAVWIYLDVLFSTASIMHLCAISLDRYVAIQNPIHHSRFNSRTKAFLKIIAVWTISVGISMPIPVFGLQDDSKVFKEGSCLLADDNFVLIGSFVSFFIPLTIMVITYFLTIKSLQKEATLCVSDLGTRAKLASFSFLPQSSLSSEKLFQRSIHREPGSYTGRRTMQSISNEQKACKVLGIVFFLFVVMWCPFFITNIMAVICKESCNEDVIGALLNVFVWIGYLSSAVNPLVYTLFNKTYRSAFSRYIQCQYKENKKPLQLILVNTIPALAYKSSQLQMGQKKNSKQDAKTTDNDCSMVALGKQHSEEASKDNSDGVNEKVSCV

SMILES | Catalepsy (average ± SE)/10 animals ([1]; deramciclane 20 mg/kg po. + haloperidol 15 mg/kg ip., p < 0.05 vs haloperidol) | Catalepsy (average ± SE)/10 animals ([1]; deramciclane 40 mg/kg po. + haloperidol 15 mg/kg ip., p < 0.05 vs haloperidol) | Catalepsy (average ± SE)/10 animals ([1]; deramciclane 80 mg/kg po. + haloperidol 15 mg/kg ip., p < 0.05 vs haloperidol) | Inhibition of catalepsy generated by haloperidol (in words) ([1]; deramciclane 20-80 mg/kg po., haloperidol 15 mg/kg ip.) | Ki [2] | Ki [3] | Ki [4] | Catalepsy caused by the compound by itself (in words) [5] | Catalepsy (average ± SE)/10 animals ([1]; haloperidol 15 mg/kg ip. alone (plus carrier))
CN(C)CCO[C@]1(c2ccccc2)C[C@H]2CC[C@]1(C)C2(C)C [Deramciclane, (1R,2S,4R)-(−)-2-[N,N-(dimethylamino-ethoxy)]-2-phenyl-1,7,7-trimethyl-biciklo[2.2.1]heptane] | 6.5 ± 0.7 /10 animals | 4.7 ± 1.3 /10 animals | 3.5 ± 1.5 /10 animals | inhibits the catalepsy generated by haloperidol in a dose dependent way | 0.011 µM | 0.027 µM | 0.113 µM | does not cause catalepsy by itself | –
O=C(CCCN1CCC(O)(c2ccc(Cl)cc2)CC1)c1ccc(F)cc1 [Haloperoidol, haloperidol, reference compound] | – | – | – | – | – | – | – | – | 9.3 ± 0.4 /10 animals
